Data as given in ChEMBL document CHEMBL1201862, “PubChem BioAssay data set” (2004).
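Step 1: Grow cells in 96-well plates. Step 2: Expose to compound for 48 hours at 5 concentrations. Step 3: Interpolate endpoints linearly; if unreached, use highest concentration. Abbreviation: GI50, concentration required for 50% inhibition of growth.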 Calls of active or inactive are those of the source. Cut-off read from the data, not from the text of the source: active = GI50 up to about 1.1 µM and inactive = higher.

Columns and labels:
Experiment in all cases: NCI-60 cell line screen, 48 h
[1] = system: ACHN
[2] = system: BT-549
[3] = system: CAKI-1
[4] = system: COLO 205
[5] = system: HCT-116
[6] = system: HL-60
[7] = system: HOP-92
[8] = system: MDA-MB-231
[9] = system: MDA-N
[10] = system: NCI-H522
[11] = system: NCI/ADR-RES
[12] = system: OVCAR-3
[13] = system: OVCAR-8
[14] = system: SF-539
[15] = system: SK-MEL-2
[16] = system: SK-OV-3
[17] = system: SNB-75
[18] = system: U-251
[19] = system: UACC-257
[20] = system: UO-31

Compound	GI50 [1]	GI50 [2]	GI50 [3]	GI50 [4]	GI50 [5]	GI50 [6]	GI50 [7]	GI50 [8]	GI50 [9]	GI50 [10]	GI50 [11]	GI50 [12]	GI50 [13]	GI50 [14]	GI50 [15]	GI50 [16]	GI50 [17]	GI50 [18]	GI50 [19]	GI50 [20]
CC(C)C(Br)C(=O)NCC(=O)O (stereo not given)	> 100 µM (inactive)	> 100 µM (inactive)	> 100 µM (inactive)	> 100 µM (inactive)	> 100 µM (inactive)	0.245 µM (active)	> 100 µM (inactive)	> 100 µM (inactive)	> 100 µM (inactive)	> 100 µM (inactive)	> 100 µM (inactive)	> 100 µM (inactive)	> 100 µM (inactive)	> 100 µM (inactive)	> 100 µM (inactive)	> 100 µM (inactive)	> 100 µM (inactive)	> 100 µM (inactive)	> 100 µM (inactive)	> 100 µM (inactive)
CC(C)=CCC(O)C1=CC(=O)c2c(O)ccc(O)c2C1=O (stereo not given)	0.525 µM (active)	1.58 µM (inactive)	0.407 µM (active)	0.171 µM (active)	1.25 µM (inactive)	0.0349 µM (active)	0.641 µM (active)	1.55 µM (inactive)	0.805 µM (active)	0.258 µM (active)	2.05 µM (inactive)	1.14 µM (inactive)	1.55 µM (inactive)	1.61 µM (inactive)	1.95 µM (inactive)	11.7 µM (inactive)	5.04 µM (inactive)	2.1 µM (inactive)	1.5 µM (inactive)	1.38 µM (inactive)
Nc1ccc(-c2nc3ccccc3s2)cc1C(F)(F)F	15.2 µM (inactive)	13.2 µM (inactive)	15.2 µM (inactive)	18.1 µM (inactive)	13.4 µM (inactive)	12.5 µM (inactive)	16.3 µM (inactive)	13.2 µM (inactive)	13.6 µM (inactive)	16.8 µM (inactive)	17.7 µM (inactive)	16.4 µM (inactive)	18.6 µM (inactive)	18.7 µM (inactive)	17.2 µM (inactive)	16.6 µM (inactive)	14.5 µM (inactive)	15 µM (inactive)	15.6 µM (inactive)	14.7 µM (inactive)
O=C(O)CNC(=O)c1ccc2cc(C(=O)N3CC(CCl)c4ccc([N+](=O)[O-])cc43)[nH]c2c1 (stereo not given)	> 100 µM (inactive)	> 100 µM (inactive)	> 100 µM (inactive)	> 100 µM (inactive)	> 100 µM (inactive)	> 100 µM (inactive)	> 100 µM (inactive)	> 100 µM (inactive)	> 100 µM (inactive)	> 100 µM (inactive)	> 100 µM (inactive)	> 100 µM (inactive)	> 100 µM (inactive)	> 100 µM (inactive)	> 100 µM (inactive)	> 100 µM (inactive)	> 100 µM (inactive)	> 100 µM (inactive)	> 100 µM (inactive)	> 100 µM (inactive)
COc1ccc(Nc2[nH]c(C(C)=O)c(N)c2C(=S)Nc2ccccc2)cc1	77.6 µM (inactive)	78 µM (inactive)	87.3 µM (inactive)	21.9 µM (inactive)	38.6 µM (inactive)	45.1 µM (inactive)	> 100 µM (inactive)	52 µM (inactive)	76.4 µM (inactive)	36.6 µM (inactive)	> 100 µM (inactive)	> 100 µM (inactive)	60.8 µM (inactive)	73.1 µM (inactive)	32.9 µM (inactive)	> 100 µM (inactive)	> 100 µM (inactive)	43.8 µM (inactive)	52.2 µM (inactive)	51.6 µM (inactive)
